How the values were obtained:
Assay type in all cases: cell-based
GPR39 (SEQ ID NO: 1) = biological target: T1, GPR39 (SEQ ID NO: 1) (Homo sapiens, UniProt O43194); assay: SRE-luciferase reporter assay for ligand activity in GPR39-expressed HeLa cells; conditions: for Increased Luciferase Activity (cps) by TLCA in GPR39-Expressed Cells: GPR39-expressed HeLa cells, 4 hours, 0 μM baseline 3574
T1 construct: expressed in transfected cells; host or cells: HeLa cells, transient transfection (vector pAKKO-111H)
T1 sequence (O43194 1-453): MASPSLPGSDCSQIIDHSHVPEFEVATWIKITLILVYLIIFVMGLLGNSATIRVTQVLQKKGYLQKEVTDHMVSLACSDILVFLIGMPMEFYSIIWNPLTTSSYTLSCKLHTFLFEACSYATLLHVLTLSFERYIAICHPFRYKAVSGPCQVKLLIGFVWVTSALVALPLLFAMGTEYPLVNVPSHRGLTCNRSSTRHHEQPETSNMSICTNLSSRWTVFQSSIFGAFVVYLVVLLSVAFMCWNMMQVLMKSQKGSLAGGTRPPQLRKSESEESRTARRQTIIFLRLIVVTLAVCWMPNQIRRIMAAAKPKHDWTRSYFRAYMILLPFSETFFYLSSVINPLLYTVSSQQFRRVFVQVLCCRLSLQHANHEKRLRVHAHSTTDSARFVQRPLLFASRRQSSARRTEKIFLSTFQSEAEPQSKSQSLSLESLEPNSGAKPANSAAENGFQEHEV
Description: (§1) First, cDNA encoding G protein-coupled receptor protein, the GPR39 (SEQ ID NO: 1) prepared by the method publicly known was inserted into pAKKO-111H (the same plasmid vector as pAKKO-1.111H described in Biochem. Biophys. Acta, Hinuma, S. et al., 1219, 251-259, 1994). Using the expression plasmid for animal cells thus obtained, Escherichia coli JM109 was transfected and the colonies obtained were isolated and cultured. Thereafter, large scale plasmid preparation was carried out using QIAGEN Plasmid Maxi Kit (Qiagen). Furthermore, the pSRE-Luc reporter plasmid (Invitrogen) ligated with a luciferase gene as a reporter at the downstream of serum response element (SRE), and expression vector plasmids for human GαoA, human Gβ1 and human Gγ2, which are a kind of G proteins, were prepared in a similar manner.
(§2) HeLa cells as host cells for transfecting the G protein-coupled receptor protein expression plasmid and the reporter plasmid were plated on a 384-well assay plate (COSTAR 3704) at 4000 cells/well in a culture volume of 25 μl, followed by incubation overnight. The medium used was DMEM (Invitrogen) supplemented with 10% fetal calf serum and 1% MEM non-essential amino acids solution (DMEM/NEAA).
(§3) Each plasmid was added to and mixed with 240 μl of Opti-MEM-I (Invitrogen) in a proportion of 1 μl of the protein expression plasmid or, for comparison, expression vector pAKKO-111H without DNA encoding the receptor protein in place of an expression plasmid of the receptor, 9 μl of the reporter plasmid and 1 μl each of the G protein-coupled receptor protein expression plasmid GαoA, Gβ1 or Gγ2. […]
(§4) The HeLa cells prepared in EXAMPLE 1 were washed twice with fetal calf serum-free DMEM/NEAA (assay medium) and then cultured in the same assay medium at 37° C. under 5% CO2 for 2 hours. […] After the cells were lysed and thoroughly mixed with the substrate, the chemiluminescence level corresponding to the expression induction level of the reporter gene in each well was measured on the plate reader (EnVision™, Perkin-Elmer).

[1] = tested on: pAKKO-111H transfected cells (control); assay: SRE-luciferase reporter assay in pAKKO-111H transfected HeLa cells for control; conditions: for Luciferase Activity (cps), pAKKO-111H (control): pAKKO-111H transfected HeLa cells, 4 hours, 0 μM baseline 2042
Description: as §1, §2, §3, §4

[2] = tested on: GPR39-expressed cell line UM-UC-3; assay: IL-8 secretion from GPR39-expressed cell line UM-UC-3, quantified by EIA; conditions: 500 μM, 4 hours
Description: Using the GPR39-expressed cell line UM-UC-3 (Dainippon Pharmaceutical), effects by the addition of bile acids as the GPR39 agonist were examined.
On the day before assay, UM-UC-3 was cultured until preconfluent in MINIMUM ESSENTIAL MEDIUM (WITH EARLE'S SALTS, WITH L-GLUTAMINE) (GIBCO BRL) supplemented with 10% FCS and MEM NON-ESSENTIAL AMINO ACIDS (GIBCO BRL), washed with PBS, detached using trypsin, centrifuged for recovery and then suspended in a medium to 3×10^6 cells/ml. After a 100 μl aliquot was dispensed into each well of a 96-well plate (Falcon), followed by incubation overnight in a CO2 incubator.
On the assay day, after the medium for the cells prepared on the preceding day was removed, the cells were washed with MEM NON-ESSENTIAL AMINO ACIDS-containing MINIMUM ESSENTIAL MEDIUM (WITH EARLE'S SALTS, WITH L-GLUTAMINE). A […] was further charged in each well, followed by incubation […] at 37° C. in a CO2 incubator. Subsequently, a 100 μl aliquot of MEM NON-ESSENTIAL AMINO ACIDS-containing MINIMUM ESSENTIAL MEDIUM (WITH EARLE'S SALTS, WITH L-GLUTAMINE), to which various test samples were added, was dispensed into each well, followed by incubation […]. After the culture supernatant was recovered, IL-8 contained in each sample was quantified by EIA (Amersham).

| Compound | luciferase activity in the GPR39-expressed cells (in words) (GPR39 (SEQ ID NO: 1); TLCA 5 μM or 20 μM) | Increased Luciferase Activity (cps) by TLCA in GPR39-Expressed Cells (GPR39 (SEQ ID NO: 1); TLCA level 5 μM) [cps] | Increased Luciferase Activity (cps) by TLCA in GPR39-Expressed Cells (GPR39 (SEQ ID NO: 1); TLCA level 20 μM) [cps] | luciferase activity in the pAKKO-111H transfected cells for control (in words) ([1]; TLCA added) | Luciferase Activity (cps), pAKKO-111H (control) ([1]; TLCA level 5 μM) [cps] | Luciferase Activity (cps), pAKKO-111H (control) ([1]; TLCA level 20 μM) [cps] | IL-8 accumulated in culture supernatant compared to absence of the conjugate [2] |
| --- | --- | --- | --- | --- | --- | --- | --- |
| C[C@H](CCC(=O)NCCS(=O)(=O)[O-])[C@H]1CC[C@H]2[C@@H]3CC[C@@H]4C[C@H](O)CC[C@]4(C)[C@H]3CC[C@]12C.[Na+] [TLCA, sodium taurolithocholate] | increased luciferase activity | 5977 | 8114 | any marked increase of the activity was not detected | 2214 | 2542 | – |
| C[C@H](CCC(=O)NCCS(=O)(=O)O)[C@H]1CC[C@H]2[C@@H]3CC[C@@H]4C[C@H](O)CC[C@]4(C)[C@H]3C[C@H](O)[C@]12C [taurine conjugate of deoxycholic acid] | – | – | – | – | – | – | approximately twice as much |
